According to article PMC9295568, “Dual Inhibition of Vacuolar-ATPase and TMPRSS2 Is Required for Complete Blockade of SARS-CoV-2 Entry into Cells” (Antimicrobial Agents and Chemotherapy, 2022):
pIC50: −log10 of the molar value. Like-named read-outs stand apart in the source and are kept apart here.

Tests used:
Assay type in all cases: cell-based
SARS-CoV-2 PsV D614G [1] = conditions: read-out: IC50, inhibition of PsV entry
[2] = test system: SARS-CoV-2 PsV B.1.1.529 (Omicron); experiment: microbe, parasite or virus in culture; conditions: Omicron variant, Vero-TMPRSS2 cells
SARS-CoV-2 PsV D614G [3] = conditions: read-out: IC50, inhibition of PsV entry; remark: listed apart in the source

CN(C)C(=O)COC(=O)Cc1ccc(OC(=O)c2ccc(NC(=N)N)cc2)cc1 [Camostat]
pIC50 (SARS-CoV-2 PsV D614G [1]): < 3.52
inhibition of PsV entry (in words) [2]: unable to inhibit
pIC50 (SARS-CoV-2 PsV D614G [3]): 6.70
